Literature values as cited in US20070141150A1, “Pharmaceutical composition” (priority 2003, published 2007).
Counter-ions that a name gives are not always drawn.

Details: interaction between propranolol and the polyanionic methacrylic acid copolymer

In the case of `CC(C)NCC(O)COc1cccc2ccccc12` (stereo not shown) [propranolol, propranolol hydrochloride], the Hill coefficient is given as 1.5.
